{"source": "paper PMC11981937", "about": "(Nature, 2025)", "key": {"[1]": {"type": "in vivo, Syrian golden hamster", "details": "JNJ-9676 75 mpk BID, pre-exposure, day 4 vs day 0, individual animals; 75 mg/kg"}, "in vitro [2]": {"test": "in vitro", "details": "human"}, "HCoV-NL63": {"tested_on": "HCoV-NL63", "test": "HCoV-NL63 CPE reduction assay in LLC-MK2 cells", "type": "cell-based"}, "Huh7 cells": {"tested_on": "Huh7 cells", "details": "human"}, "in vitro [3]": {"test": "in vitro", "details": "rhesus monkey"}, "SARS-CoV-2 (B1)": {"tested_on": "SARS-CoV-2 (B1)", "type": "cell-based"}, "in vivo": {"test": "in vivo", "details": "rat"}, "[4]": {"details": "female, Syrian golden, hamster, in vivo, po"}, "PDCoV": {"tested_on": "PDCoV", "test": "PDCoV antiviral CPE reduction assay in Huh7 cells", "type": "cell-based, porcine deltacoronavirus"}, "SARS-CoV": {"tested_on": "SARS-CoV", "test": "microbe, parasite or virus in culture", "type": "cell-based", "details": "Severe acute respiratory syndrome coronavirus, Vero"}, "SARS-CoV-2": {"tested_on": "SARS-CoV-2", "type": "in vivo, Syrian golden hamster", "details": "for Infectious virus in the lung (TCID50), average Log 10 / Infectious virus in the lung (TCID50), median Log 10 / Viral load (viral RNA) in the lung, average Log 10 / Viral load (viral RNA) in the lung, median Log 10 / Infectious virus in the lung (TCID50), Copy number, individual animal / Infectious virus in the lung (TCID50), Log 10, individual animal / Viral load (viral RNA) in the lung, Copy number, individual animal / Viral load (viral RNA) in the lung, Log 10, individual animal: 75 mg/kg BID; for Infectious virus in the lung (TCID50), average Log 10 / Infectious virus in the lung (TCID50), median Log 10 / Viral load (viral RNA) in the lung, average Log 10 / Viral load (viral RNA) in the lung, median Log 10: n=5; for Infectious virus in the lung (TCID50), Copy number, individual animal / Infectious virus in the lung (TCID50), Log 10, individual animal / Viral load (viral RNA) in the lung, Copy number, individual animal / Viral load (viral RNA) in the lung, Log 10, individual animal: listed as 87009676-AAA"}, "in vitro [5]": {"test": "in vitro", "details": "African green monkey"}, "[6]": {"target": "purified recombinant SARS-CoV-2 M (Severe acute respiratory syndrome coronavirus 2, UniProt P0DTC5)", "test": "Nano differential scanning fluorimetry (nanoDSF)", "type": "binding", "details": "100 µM compound, 0.5 mg/ml M protein, n=3"}, "MERS-CoV": {"tested_on": "MERS-CoV", "test": "microbe, parasite or virus in culture", "type": "cell-based", "details": "Middle East respiratory syndrome-related coronavirus, Huh-7, read-out: Median EC50"}, "in vitro [7]": {"test": "in vitro", "details": "human", "remark": "listed apart in the source"}, "HCoV-229E": {"tested_on": "HCoV-229E", "test": "microbe, parasite or virus in culture", "type": "cell-based", "details": "Human coronavirus 229E"}}, "note": "“And” between values parts separate entries of the source, which are not always exact repeats. Equal entries are not always repeated. “Also recorded” adds a separate entry of the source. Where two headings read alike, the source gives them in different places."}
{"compound": "C[C@H]1Cn2ncc(C(=O)Nc3cccc(C#N)c3)c2C(=O)N1c1ccc(C(F)(F)c2ccccc2)cc1", "note": "[JNJ-9676, (S)-N-(3-cyanophenyl)-5-(4-(difluoro(phenyl)methyl)phenyl)-6-methyl-4-oxo-4,5,6,7-tetrahydropyrazolo[1,5-a]pyrazine-3-carboxamide]", "values": [{"measurement": "% body weight change compared to day 0", "setting": "[1]", "result": "-0.3% and 0.3% and 3.9% and 4.1% and 2.7%"}, {"measurement": "CC50", "setting": "in vitro [2]; Median CC50", "result": "> 20", "unit": "µM"}, {"measurement": "CC50", "setting": "in vitro [2]; Median CC50, Huh7, line of MHV, N=2", "result": "> 20", "unit": "µM"}, {"measurement": "CC50", "setting": "in vitro [2]; Median CC50, Huh7, line of PDCoV, N=2", "result": "> 30", "unit": "µM"}, {"measurement": "antiviral activity (in words)", "setting": "HCoV-NL63; HCoV-NL63", "result": "no activity"}, {"measurement": "EC50", "setting": "HCoV-NL63; Human coronavirus NL63, LLC-MK2, HCoV-NL63 (alphaCoV), N=2, read-out: Median EC50", "result": "> 20", "unit": "µM"}, {"measurement": "EC90", "setting": "HCoV-NL63; Human coronavirus NL63, LLC-MK2, HCoV-NL63 (alphaCoV), N=2, read-out: Median EC90", "result": "> 20", "unit": "µM"}, {"measurement": "CC50", "setting": "Huh7 cells", "result": "> 30", "unit": "µM"}, {"measurement": "CC50 at 6 days", "setting": "in vitro [3]", "result": "> 20", "unit": "µM"}, {"measurement": "biogenesis of infectious progeny", "setting": "SARS-CoV-2 (B1)", "result": "inhibited completely"}, {"measurement": "Vd", "setting": "in vivo", "result": 8.4, "unit": "L/kg"}, {"measurement": "clearance", "setting": "in vivo", "result": 5.2, "unit": "mL/min/kg"}, {"measurement": "half-life", "setting": "in vivo", "result": 19, "unit": "h"}, {"measurement": "bioavailability", "setting": "in vivo; po", "result": "> 70", "unit": "%"}, {"measurement": "Concentration, individual animal", "setting": "[4]; 5 mg/kg, 12 h", "result": 153, "unit": "ng/mL"}, {"measurement": "Concentration, individual animal", "setting": "[4]; 50 mg/kg, 1 h", "result": 908, "unit": "ng/mL"}, {"measurement": "EC50", "setting": "PDCoV; Coronavirus HKU15, Huh-7, Huh7, PDCoV (deltaCoV), N=2, read-out: Median EC50", "result": "> 30", "unit": "µM"}, {"measurement": "EC90", "setting": "PDCoV; Coronavirus HKU15, Huh-7, Huh7, PDCoV (deltaCoV), N=2, read-out: Median EC90", "result": "> 30", "unit": "µM"}, {"measurement": "antiviral activity (in words)", "setting": "PDCoV; PDCoV", "result": "no activity"}, {"measurement": "EC50", "setting": "SARS-CoV; read-out: Median EC50", "result": 0.016, "unit": "µM"}, {"measurement": "EC90", "setting": "SARS-CoV; read-out: Median EC90", "result": 0.02, "unit": "µM"}, {"measurement": "Infectious virus in the lung (TCID50), average Log 10", "setting": "SARS-CoV-2; 10 h post exposure", "result": 1.99, "unit": "Log 10"}, {"measurement": "Infectious virus in the lung (TCID50), median Log 10", "setting": "SARS-CoV-2; 10 h post exposure", "result": 1.84, "unit": "Log 10"}, {"measurement": "Viral load (viral RNA) in the lung, average Log 10", "setting": "SARS-CoV-2; 10 h post exposure", "result": 6.33, "unit": "Log 10"}, {"measurement": "Viral load (viral RNA) in the lung, median Log 10", "setting": "SARS-CoV-2; 10 h post exposure", "result": 6.02, "unit": "Log 10"}, {"measurement": "Infectious virus in the lung (TCID50), Copy number, individual animal", "setting": "SARS-CoV-2; 10 h post exposure", "result": "3.34E+02 and 6.93E+01 and 7.21E+00 and 6.50E+01 and 8.01E+02"}, {"measurement": "Infectious virus in the lung (TCID50), Log 10, individual animal", "setting": "SARS-CoV-2; 10 h post exposure", "result": "2.52 Log 10 and 1.84 Log 10 and 0.86 Log 10 and 1.81 Log 10 and 2.90 Log 10"}, {"measurement": "Viral load (viral RNA) in the lung, Copy number, individual animal", "setting": "SARS-CoV-2; 10 h post exposure", "result": "1.05E+06 and 4.63E+06 and 1.13E+05 and 8.39E+05 and 9.46E+07"}, {"measurement": "Viral load (viral RNA) in the lung, Log 10, individual animal", "setting": "SARS-CoV-2; 10 h post exposure", "result": "6.02 Log 10 and 6.67 Log 10 and 5.05 Log 10 and 5.92 Log 10 and 7.98 Log 10"}, {"measurement": "Infectious virus in the lung (TCID50), average Log 10", "setting": "SARS-CoV-2; 24 h post exposure", "result": 1.64, "unit": "Log 10"}, {"measurement": "Infectious virus in the lung (TCID50), median Log 10", "setting": "SARS-CoV-2; 24 h post exposure", "result": 1.62, "unit": "Log 10"}, {"measurement": "Viral load (viral RNA) in the lung, average Log 10", "setting": "SARS-CoV-2; 24 h post exposure", "result": 6.39, "unit": "Log 10"}, {"measurement": "Viral load (viral RNA) in the lung, median Log 10", "setting": "SARS-CoV-2; 24 h post exposure", "result": 6.81, "unit": "Log 10"}, {"measurement": "Infectious virus in the lung (TCID50), Copy number, individual animal", "setting": "SARS-CoV-2; 24 h post exposure", "result": "4.14E+01 and 7.14E+01 and 5.40E+01 and 2.87E+01 and 3.52E+01"}, {"measurement": "Infectious virus in the lung (TCID50), Log 10, individual animal", "setting": "SARS-CoV-2; 24 h post exposure", "result": "1.62 Log 10 and 1.85 Log 10 and 1.73 Log 10 and 1.46 Log 10 and 1.55 Log 10"}, {"measurement": "Viral load (viral RNA) in the lung, Copy number, individual animal", "setting": "SARS-CoV-2; 24 h post exposure", "result": "9.36E+06 and 2.59E+04 and 3.10E+05 and 6.49E+06 and 1.85E+08"}, {"measurement": "Viral load (viral RNA) in the lung, Log 10, individual animal", "setting": "SARS-CoV-2; 24 h post exposure", "result": "6.97 Log 10 and 4.41 Log 10 and 5.49 Log 10 and 6.81 Log 10 and 8.27 Log 10"}, {"measurement": "Infectious virus in the lung (TCID50), average Log 10", "setting": "SARS-CoV-2; 48 h post exposure", "result": 1.82, "unit": "Log 10"}, {"measurement": "Infectious virus in the lung (TCID50), median Log 10", "setting": "SARS-CoV-2; 48 h post exposure", "result": 1.67, "unit": "Log 10"}, {"measurement": "Viral load (viral RNA) in the lung, average Log 10", "setting": "SARS-CoV-2; 48 h post exposure", "result": 7.33, "unit": "Log 10"}, {"measurement": "Viral load (viral RNA) in the lung, median Log 10", "setting": "SARS-CoV-2; 48 h post exposure", "result": 7.46, "unit": "Log 10"}, {"measurement": "Infectious virus in the lung (TCID50), Copy number, individual animal", "setting": "SARS-CoV-2; 48 h post exposure", "result": "4.79E+01 and 7.10E+02 and 4.67E+01 and 2.27E+01 and 3.31E+01"}, {"measurement": "Infectious virus in the lung (TCID50), Log 10, individual animal", "setting": "SARS-CoV-2; 48 h post exposure", "result": "1.68 Log 10 and 2.85 Log 10 and 1.67 Log 10 and 1.36 Log 10 and 1.52 Log 10"}, {"measurement": "Viral load (viral RNA) in the lung, Copy number, individual animal", "setting": "SARS-CoV-2; 48 h post exposure", "result": "5.20E+06 and 3.10E+06 and 6.15E+07 and 1.50E+08 and 2.86E+07"}, {"measurement": "Viral load (viral RNA) in the lung, Log 10, individual animal", "setting": "SARS-CoV-2; 48 h post exposure", "result": "6.72 Log 10 and 6.49 Log 10 and 7.79 Log 10 and 8.18 Log 10 and 7.46 Log 10"}, {"measurement": "efficacy (in words)", "setting": "SARS-CoV-2; hamster, in vivo", "result": "efficacious; also recorded: significant efficacy"}, {"measurement": "reduction of infectious virus in the lung", "setting": "SARS-CoV-2; hamster, in vivo", "result": "1.8 log10[TCID50 per mg lung]"}, {"measurement": "Infectious virus in the lung, reduction relative to vehicle", "setting": "SARS-CoV-2; hamster, in vivo, 75 mg/kg", "result": "1.65 (p=0.0003) log10 TCID50/mg lung and 2.00 (p<0.0001) log10 TCID50/mg lung and 1.83 (p<0.0001) log10 TCID50/mg lung and 1.65 (p=0.0003) log10 TCID50/mg lung and 2.00 (p<0.0001) log10 TCID50/mg lung and 1.83 (p<0.0001) log10 TCID50/mg lung"}, {"measurement": "Viral load in the lung, reduction relative to vehicle", "setting": "SARS-CoV-2; hamster, in vivo, 75 mg/kg", "result": "2.38 (p=0.0004) log10 copies/mg lung and 2.32 (p=0.0005) log10 copies/mg lung and 1.38 (p>0.05) log10 copies/mg lung and 2.38 (p=0.0004) log10 copies/mg lung and 2.32 (p=0.0005) log10 copies/mg lung and 1.38 (p>0.05) log10 copies/mg lung"}, {"measurement": "CC50", "setting": "in vitro [5]", "result": "> 50", "unit": "µM"}, {"measurement": "Tm", "setting": "[6]", "result": "54.1 ± 0.1", "unit": "°C"}, {"measurement": "ΔTm (stabilization in melting temperature)", "setting": "[6]", "result": 0.9, "unit": "°C"}, {"measurement": "EC50", "setting": "MERS-CoV", "result": 0.6, "unit": "µM"}, {"measurement": "CC50 at 6 days", "setting": "in vitro [7]", "result": "> 50", "unit": "µM"}, {"measurement": "EC50", "setting": "HCoV-229E; read-out: Median EC50", "result": "> 12.5", "unit": "µM"}, {"measurement": "EC90", "setting": "HCoV-229E; read-out: Median EC90", "result": "> 12.5", "unit": "µM"}]}
